Data set [1] deals with scratched monolayers of HaCaT cells (human keratinocyte cell line). The experiment in a line: In vitro wound healing model (scratched HaCaT monolayer). To be noted: AG 20 μM, 15 min pre-treatment, no bacterial extract, 20 hours. It counts as cell-based. Here is the method: The inventor has evaluated the ability of extracts obtained from selected bacterial strains to influence wound re-epithelialization using an in vitro artificial wound model. The rate of closure of the scratched monolayer in untreated cells and in cells treated with each bacterial extract at the concentration of 50 μg/ml is shown and evaluated through the observation of the repopulation of the area between the wound edges at different time points after the wound generation. In order to quantitatively analyze the effects of the bacterial extracts on the closure of the wound area, images obtained by using an inverted phase contrast microscope at 0, 20, 28 and 45 hours after the scratch were acquired and expressed as a percentage of closure by using an automatical calculation system to evaluate the percentage of area occupied by said cells with respect to the total surface area analyzed. […] The results expressed as percentages of relative re-epithelialization (mean±SEM from three independent experiments conducted in duplicate) as well as the images representing microscopic observations of scratched monolayers are shown in FIGS. 1A and 1B respectively.
The HaCaT cell line of spontaneously immortalized human keratinocytes was purchased from Cell Lines Service GmbH (Eppelheim, Germany). […] Untreated cells were also analysed and used as negative controls. […]

The next data set has as its system iNOS. The experiment in a line: Nitrite levels assay (Griess) in culture medium of scratched HaCaT monolayers. It counts as cell-based, human. As to conditions: AG 20 μM, 15 min pre-treatment, no bacterial extract, 28 hours. Here is the method:
The scratched monolayers of HaCaT cells were incubated with or without AG at the concentration of 20 μM for 15 minutes before treatment with the bacterial extracts. Nitrite levels in the culture medium were analyzed by Griess reagent after 28 hours. Data shown are expressed as the mean±SEM of three independent experiments conducted in duplicate. The two-way analysis of variance followed by the Bonferroni's post-hoc test was used to assess the presence of statistically significant differences between the data groups: *P<0.05, **P<0.01, ****P<0.0001 with respect to the control (untreated). #P<0.05, ##P<0.01, ###P<0.001, ####P<0.0001 with respect to each corresponding culture without AG. The ability of bacterial extracts to regulate iNOS was further analyzed by measuring the nitrite levels in supernatants of scratched monolayers of HaCaT cells pre-treated with AG, a selective iNOS inhibitor, or not treated with such inhibitor (known from T. P. Misko et al., Eur. J. Pharmacol, 1993, 233:119-125). NO production was indirectly evaluated with the use of the Griess method by measuring nitrite levels using nitrate reductase and the Griess reaction based on a colorimetric assay. […] Absorbance was measured by spectrophotometric reading at 550 nm using a microplate reader (Bio-Rad Hercules, California, USA). […]

Data set [2] in a line: Clinical course of diabetes ulcers and toe amputation wound in a patient (Example 1). It counts as in vivo, human. As to conditions: 500 mg orally every 12 hours, four weeks.
From the text: The probiotic formulation was a composition comprising Lactobacillus plantarum NCIMB 43029, Lactobacillus acidophilus NCIMB 43030 and the known Streptococcus thermophilus (SEQ ID NO: 10). 0.5 g of composition was applied once daily.
The use of the probiotic formulation was discontinued on day 60, 24 days after treatment.
Another data set has as its system HaCaT keratinocytes. The experiment in a line: Trypan blue dye exclusion test of HaCaT viability. The class given is cell-based, human. As to conditions: 0.1%; positive control; P≤0.01. Here is the method: The HaCaT cell line of spontaneously immortalized human keratinocytes was purchased from Cell Lines Service GmbH (Eppelheim, Germany). HaCaT cells were cultured in DMEM supplemented with 10% (v/v) fetal calf serum (FCS), 2 mM L-glutamine, 100 U/ml penicillin and 100 μg/ml streptomycin (Euro Clone, West York, UK). The culture conditions were kept constantly at 37° C. in a humidified atmosphere with 5% CO2. After reaching 80% confluency, cells were seeded, as specified below, in 6- or 12-well plates for sterile cell cultures (Becton Dickinson, San José, CA) at the concentration of 18,000 cells/cm^2. Non-adherent cells were removed by gentle washing in phosphate buffer (PBS, pH=7.4). Cells grown in a 12-well plate were collected at 20, 28 and 45 hours and live cells were counted with the trypan blue dye exclusion test (Euro Clone, West York, UK). […] Untreated cells were also analysed and used as negative controls. The cells were transferred to a Bürker counting chamber and counted under a microscope Eclipse 50i (Nikon Corporation, Japan). For the selection of suitable concentrations of bacterial extract expressed as μg protein/ml, the viability of the HaCaT keratinocytes was analyzed using the trypan blue exclusion test. […]

As to `N=C(N)NN` [AG, aminoguanidine], in data set [1], the “re-epithelialization (repairing) of the control monolayer” value is reported as “strong effect on the physiological repairing of the control monolayer”. Further, in the data set with iNOS, the “nitrite production induced by scratching the control monolayer” value is recorded as “significantly prevented the increase in nitrite production”.
As for `CC1(C)S[C@@H]2[C@H](NC(=O)[C@H](N)c3ccc(O)cc3)C(=O)N2[C@H]1C(=O)O` [amoxicillin], in data set [2], the “clinical picture of the wounds (wound exudate)” value is recorded as “worsening clinical picture”.
Consider Triton X, for which the cell viability entry in the data set on HaCaT keratinocytes is “significant reduction”.

Values taken from patent US12544413B2, “Composition with antibacterial and re-epithelializing action including probiotics” (EOS2021 S.R.L, priority 2019, dated 2026).
